Where “and” joins values, the source holds several entries; their conditions need not be identical. Equal values may be shown once.
Test system: 361931-004-R-J1-PDC multicell spheroid viability
Assay: Anticancer human tumor 361931-004-R-J1-PDC patient-derived colon adenocarcinoma cell line growth inhibition [PI3K]
Details: for viability, T/C: stronger effect = lower value
From the text: Combinatorial screen of targeted agents with the PI3K inhibitors inavolisib, alpelisib, duvelisib, and copanlisib in multi-cell type tumor spheroids
A high-throughput screen of multi-cell type tumor spheroids was designed to identify active combinations of targeted small molecules and PI3K pathway inhibitors. Complex spheroids include a stromal component modeled by human endothelial cells (HUVEC) and fibroblasts modeled by human mesenchymal stem cells (MSCs). The concentration ranges selected for each drug and investigational agent were based upon clinically achievable concentrations if the clinical Cmax of the agent was known.
Compounds. The drugs and investigational agents: inavolisib (NSC800729), alpelisib (NSC765974), duvelisib (NSC772469), copanlisib (NSC816437), ipatasertib (NSC767898), afuresertib (NSC778305), talazoparib (NSC767125), sapanisertib (NSC764658), selumetinib (NSC741078), tovorafenib (DAY101, NSC766906), vemurafenib (NSC761431), ravoxertinib (NSC781343), sotorasib (NSC818433), MRTX1133 (NSC 836407), abemaciclib (NSC 768073), palbociclib (NSC758247), venetoclax (NSC 766270), SY5609 (NSC837396), enzalutamide (NSC755605), and darolutamide (NSC825331), were obtained from the National Cancer Institute (NCI) Developmental Therapeutics Program Chemical Repository. The FDA-approved anticancer drug set is available from the NCI Developmental Therapeutics Program. […] The stock solutions were prepared in dimethyl sulfoxide (DMSO, Sigma-Aldrich, St. Louis, MO, cat. D2650) at 800-fold the tested concentration and stored at -70 degrees C prior to their use. All drugs and investigational agents were tested over a range starting from a high concentration at or near the clinical Cmax and decreasing in half-log increments. If the clinical Cmax for an agent had not been determined, the highest concentration tested was 10 microM.
Cell Culture. All cells were maintained in an incubator at 37 degrees C and 5% CO2 with 95% humidity. The PDC lines were cultured according to standard operating procedures established by the NCI PDMR (https://pdmr.cancer.gov/sops/default.htm). All PDCs were thawed and cultured in Matrigel-coated flasks prepared with a working solution of 1X Ham's F-12 nutrient mix, without supplementation (Invitrogen, Waltham, MA, cat. 11765054), 100 U/mL penicillin-streptomycin (Invitrogen, cat. 15140122), and 2.5% Matrigel (Corning Inc., Corning, NY, cat. 354248) for the first three passages. The 354836-022-R-J1-PDC, 475296-252-R-J1-PDC, and 997726-040-R-J2-PDC lines were cultured in 6A media, which includes advanced DMEM/F-12 (Thermo Fisher Scientific, cat. 12634028), 10 mM HEPES (Thermo Fisher Scientific, cat. 15630080), 1X GlutaMAX supplement (Thermo Fisher Scientific, cat. 35050061), 0.1 mg/mL primocin (InvivoGen, San Diego, CA, cat. ant-pm-2), 10% defined fetal bovine serum, heat inactivated (HyClone Laboratories Inc., Logan, UT, cat. SH30070.03HI), 50% L-WRN conditioned media (ATCC, cat. CRL-3276), 1.25 mM N-Acetyl-L-cysteine (Sigma-Aldrich, cat. A9165), 10 mM nicotinamide (Sigma-Aldrich, cat. N0636), 1X B-27 supplement (Thermo Fisher Scientific, cat. 17504044), 1X N-2 supplement (Thermo Fisher Scientific, cat. 17502048), and 10 microM Y-27632 dihydrochloride (Tocris Bioscience, Bristol, United Kingdom, cat. 1254). The 624824-186-R-J2-PDC line was cultured in 6C/Colon 1B media, which includes all 6A media components plus 50 ng/mL human EGF recombinant protein (Thermo Fisher Scientific, cat. PHG0311). […]

[1] = compound alone, run of 05/08/2023
[2] = compound alone, run of 05/09/2023
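Also: spheroids exposed to agents for seven days before readout.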

SMILES	IC50 (curve of compound)	viability, T/C (compound 0.0316 µM)	viability, T/C (compound 0.1 µM)	viability, T/C (compound 0.316 µM)	viability, T/C (compound 1 µM)	viability, T/C (compound 3.16 µM)	viability, T/C (compound 10 µM)	viability, T/C (compound 0.00316 µM)	viability, T/C (compound 0.01 µM)	also measured
C#Cc1c(F)ccc2cc(O)cc(-c3ncc4c(N5CC6CCC(C5)N6)nc(OCC56CCCN5CC(F)C6)nc4c3F)c12 (stereo unspecified)	> 10 µM	104% [middle of 4 runs]	106% [middle of 4 runs]	100% [middle of 4 runs]	104% [middle of 4 runs]	96.7% [middle of 4 runs]	–	–	–	–
CC(=O)c1c(C)c2cnc(Nc3ccc(N4CCNCC4)cn3)nc2n(C2CCCC2)c1=O	> 0.1 µM	108% (2×) and 92.8% and 104%	86.5% [middle of 4 runs]	–	–	–	–	100% [middle of 4 runs]	103% [middle of 4 runs]	viability, T/C (compound 0.000316 µM): 103% [middle of 4 runs]; viability, T/C (compound 0.001 µM): 105% [middle of 4 runs]
CC(C)NCC(C(=O)N1CCN(c2ncnc3c2C(C)CC3O)CC1)c1ccc(Cl)cc1 (stereo unspecified)	–	97.8% [middle of 4 runs]	99.3% [middle of 4 runs]	94.3% [middle of 4 runs]	–	48.7% [middle of 4 runs]	31.1% [middle of 4 runs]	–	–	–
CC(C)n1nc(-c2ccc3oc(N)nc3c2)c2c(N)ncnc21	> 0.1 µM	99.3% [middle of 4 runs]	76% [middle of 4 runs]	–	–	–	–	108% and 100% (2×) and 104%	108% and 100% (2×) and 101%	viability, T/C (compound 0.000316 µM): 99.8% [middle of 4 runs]; viability, T/C (compound 0.001 µM): 102% [middle of 4 runs]
CC(Nc1ccc2c(c1)OCCn1cc(N3C(=O)OCC3C(F)F)nc1-2)C(N)=O (stereo unspecified)	–	98.1% [middle of 8 runs]	94.3% [middle of 8 runs]	92.9% [middle of 8 runs]	88.1% [middle of 8 runs]	–	–	98.9% [middle of 8 runs]	97.8% [middle of 8 runs]	IC50 [1]: > 1 µM
CC(Nc1ncnc2nc[nH]c12)c1cc2cccc(Cl)c2c(=O)n1-c1ccccc1 (stereo unspecified)	–	106% [middle of 8 runs]	102% [middle of 8 runs]	105% [middle of 8 runs]	104% [middle of 8 runs]	103% [middle of 8 runs]	102% [middle of 8 runs]	–	–	IC50 [2]: > 10 µM
COc1c(OCCCN2CCOCC2)ccc2c3n(c(=NC(=O)c4cnc(N)nc4)nc12)CCN3	–	95.4% [middle of 8 runs]	80.6% [middle of 8 runs]	55.9% [middle of 8 runs]	22.8% [middle of 8 runs]	–	–	102% [middle of 8 runs]	98.4% [middle of 8 runs]	IC50 [2]: 393 nM [middle of 8 runs]
C[C@@H](NC(=O)c1ncnc(N)c1Cl)c1ncc(C(=O)Nc2cc(C(F)(F)F)c(Cl)cn2)s1	> 10 µM	106% [middle of 4 runs]	103% and 104% (2×) and 115%	107% [middle of 4 runs]	99.6% [middle of 4 runs]	99.3% [middle of 4 runs]	100% [middle of 4 runs]	–	–	–
Cc1nc(NC(=O)N2CCCC2C(N)=O)sc1-c1ccnc(C(C)(C)C(F)(F)F)c1 (stereo unspecified)	–	101% [middle of 8 runs]	–	97.9% [middle of 8 runs]	91.2% [middle of 8 runs]	87.2% [middle of 8 runs]	73.8% [middle of 8 runs]	–	–	IC50 [1]: > 10 µM
Cn1ncc(Cl)c1-c1cc(C(=O)NC(CN)Cc2cccc(F)c2)sc1Cl (stereo unspecified)	–	94.2% [middle of 4 runs]	97.2% [middle of 4 runs]	–	–	46.3% [middle of 4 runs]	29.7% [middle of 4 runs]	–	–	–

Continued, in another order:

IC50 (curve of compound)	SMILES	viability, T/C (compound 0.0316 µM)	viability, T/C (compound 0.1 µM)	viability, T/C (compound 0.316 µM)	viability, T/C (compound 1 µM)	viability, T/C (compound 3.16 µM)	viability, T/C (compound 10 µM)	viability, T/C (compound 0.00316 µM)	viability, T/C (compound 0.01 µM)	also measured
> 10 µM	C=CC(=O)N1CCN(c2nc(=O)n(-c3c(C)ccnc3C(C)C)c3nc(-c4c(O)cccc4F)c(F)cc23)C(C)C1 (stereo unspecified)	99.5% [middle of 4 runs]	95.4% [middle of 4 runs]	105% [middle of 4 runs]	103% [middle of 4 runs]	100% [middle of 4 runs]	99.2% [middle of 4 runs]	–	–	–
> 10 µM	CC(Cn1ccc(-c2ccc(C#N)c(Cl)c2)n1)NC(=O)c1cc(C(C)O)[nH]n1 (stereo unspecified)	104% [middle of 4 runs]	97.2% [middle of 4 runs]	105% [middle of 4 runs]	104% [middle of 4 runs]	102% [middle of 4 runs]	106% [middle of 4 runs]	–	–	–
4.94 µM and 4.18 µM and 5.61 µM	CC1(C)CCC(CN2CCN(c3ccc(C(=O)NS(=O)(=O)c4ccc(NCC5CCOCC5)c([N+](=O)[O-])c4)c(Oc4cnc5[nH]ccc5c4)c3)CC2)=C(c2ccc(Cl)cc2)C1	100% [middle of 4 runs]	101% [middle of 4 runs]	101% [middle of 4 runs]	102% [middle of 4 runs]	–	3.75% [middle of 4 runs]	–	–	–
5.1 µM [middle of 4 runs]	CCCS(=O)(=O)Nc1ccc(F)c(C(=O)c2c[nH]c3ncc(-c4ccc(Cl)cc4)cc23)c1F	103% (2×) and 94% and 108%	103% and 101% (2×) and 98.4%	97.1% [middle of 4 runs]	92.3% [middle of 4 runs]	82% [middle of 4 runs]	8.31% [middle of 4 runs]	–	–	–
> 1 µM	CCN1CCN(Cc2ccc(Nc3ncc(F)c(-c4cc(F)c5nc(C)n(C(C)C)c5c4)n3)nc2)CC1	–	101% [middle of 4 runs]	–	–	–	–	104% (2×) and 94% and 103%	105% [middle of 4 runs]	–
> 10 µM	CNC(=O)c1ccc(N2C(=S)N(c3ccc(C#N)c(C(F)(F)F)c3)C(=O)C2(C)C)cc1F	101% [middle of 4 runs]	101% [middle of 4 runs]	104% [middle of 4 runs]	110% and 103% (2×) and 102%	98.6% [middle of 4 runs]	92.4% [middle of 4 runs]	–	–	–
2.44 µM and > 3 µM and 2.72 µM	Cn1cnc2c(F)c(Nc3ccc(Br)cc3Cl)c(C(=O)NOCCO)cc21	–	–	–	–	–	–	–	–	viability, T/C (compound 0.00949 µM): 97.8% [middle of 4 runs]; viability, T/C (compound 0.03 µM): 92.1% [middle of 4 runs]; viability, T/C (compound 0.0949 µM): 90% [middle of 4 runs]; viability, T/C (compound 0.3 µM): 86.4% [middle of 4 runs]; viability, T/C (compound 0.949 µM): 84% [middle of 4 runs]; viability, T/C (compound 3 µM): 62.8% [middle of 4 runs]
> 10 µM and 9.47 µM	Cn1nccc1Nc1nccc(-c2ccn(C(CO)c3ccc(Cl)c(F)c3)c(=O)c2)n1 (stereo unspecified)	106% [middle of 4 runs]	92.5% [middle of 4 runs]	97% [middle of 4 runs]	95.2% [middle of 4 runs]	78.3% [middle of 4 runs]	61.8% [middle of 4 runs]	–	–	–
> 0.1 µM	Cn1ncnc1[C@H]1c2n[nH]c(=O)c3cc(F)cc(c23)N[C@@H]1c1ccc(F)cc1	102% [middle of 4 runs]	–	–	–	–	–	96.5% [middle of 4 runs]	101% [middle of 4 runs]	viability, T/C (compound 0.000316 µM): 103% [middle of 4 runs]; viability, T/C (compound 0.001 µM): 99.7% [middle of 4 runs]

Reference: PubChem BioAssay AID1963979 (Molecular Pharmacology Branch, DTP, NCI, 2024)
